Results on one compound are retold here after publication PMC4404097, “The Inhibitory Effects of Ca^2+ Channel Blocker Nifedipine on Rat Kv2.1 Potassium Channels” (PLoS ONE, 2015).

Substitutions are numbered along the chain they refer to.

For experiment [1], the target named is T1, rat Kv2.1 (Rattus norvegicus, UniProt P15387, Y380R).
T1 construct: gene Kcnb1; rat Kv2.1 subcloned in pEYFP-N1 (XhoI/EcoRI); homotetramer
T1 sequence (P15387 1-857 Y380R): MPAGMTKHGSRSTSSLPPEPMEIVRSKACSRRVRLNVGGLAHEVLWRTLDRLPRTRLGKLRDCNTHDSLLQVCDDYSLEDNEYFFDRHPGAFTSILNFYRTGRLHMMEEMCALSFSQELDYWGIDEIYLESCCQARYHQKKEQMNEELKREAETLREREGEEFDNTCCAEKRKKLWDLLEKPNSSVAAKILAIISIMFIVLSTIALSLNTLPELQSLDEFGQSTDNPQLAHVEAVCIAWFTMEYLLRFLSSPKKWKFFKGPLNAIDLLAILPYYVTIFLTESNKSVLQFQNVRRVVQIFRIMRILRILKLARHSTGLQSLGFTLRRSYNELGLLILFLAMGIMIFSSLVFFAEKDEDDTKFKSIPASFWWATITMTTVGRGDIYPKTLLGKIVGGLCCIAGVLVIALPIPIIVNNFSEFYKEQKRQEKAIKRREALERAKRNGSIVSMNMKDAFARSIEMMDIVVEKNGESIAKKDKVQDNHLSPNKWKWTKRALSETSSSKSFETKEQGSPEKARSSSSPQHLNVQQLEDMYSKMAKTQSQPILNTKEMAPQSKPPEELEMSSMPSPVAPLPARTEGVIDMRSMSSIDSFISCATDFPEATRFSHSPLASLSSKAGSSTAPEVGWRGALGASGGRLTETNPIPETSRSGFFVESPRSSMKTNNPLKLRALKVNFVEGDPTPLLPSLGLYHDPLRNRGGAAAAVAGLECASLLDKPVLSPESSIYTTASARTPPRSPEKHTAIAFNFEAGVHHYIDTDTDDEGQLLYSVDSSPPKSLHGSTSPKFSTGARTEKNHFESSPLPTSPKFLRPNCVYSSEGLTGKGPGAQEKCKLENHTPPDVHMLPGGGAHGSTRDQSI
In words: whole-cell patch clamp, Hill fit of concentration-response. The class given is cell-based. In general terms: Patch clamp records ionic current or voltage across a cell membrane.

The target in experiment [2] is T2, rat Kv2.1 (Rattus norvegicus, UniProt P15387).
T2 construct: gene Kcnb1; rat Kv2.1 subcloned in pEYFP-N1 (XhoI/EcoRI); homotetramer
T2 sequence (P15387 1-857): T1 sequence (P15387 1-857 Y380R) with R380Y
The experiment is described as above. The class given is cell-based.

A word on the IC50: it is the concentration needed to halve the response being measured. Read a low IC50 as greater potency in that assay.

Turning to `COC(=O)C1=C(C)NC(C)=C(C(=O)OC)C1c1ccccc1[N+](=O)[O-]` [nifedipine], the IC50 in experiment [1] amounted to 15.2 ± 1.3 µM; in experiment [2] it was 37.5 ± 5.7 µM.
